Values of other authors, collected in patent US12365644B2, “Co-crystal of ketoprofen, lysine and gabapentin, pharmaceutical compositions and their medical use” (DOMPÉ FARMACEUTICI S.P.A., priority 2020, dated 2025).

Tests used:
[1] = most common side effects

In the case of `NCC1(CC(=O)O)CCCCC1` [Gabapentin], the “time to utmost level in plasma” value (after oral administration) is given as 3 to 4 h, the “attachment to plasma proteins” value (in vivo) is given as “does not attach to plasma proteins” and the excretion half-life (renal excretion) is given as “roughly 6 hours”. For the same compound, the “side effect: ataxia” value [1] was 13%, the “side effect: dizziness” value [1] was 18% and the “side effect: fatigue” value [1] was 11%. The “side effect: somnolence” value [1] was 20%.
